According to US10947229B2, “Dimethyl amino azetidine amides as JAK inhibitors” (THERAVANCE BIOPHARMA R&D IP, LLC, priority 2018, dated 2021):

What was measured:
[1] = test system: IFNγ secretion in mixed lymphocyte reaction; experiment: Inhibition of IFNγ secretion in a mixed lymphocyte reaction assay; assay type: cell-based, human
Description: The mixed lymphocyte reaction assay is an in-vitro assay that mimics transplant rejection. T cells from one donor are cultured with allogeneic dendritic cells from another donor. This reaction induces a cellular immune response such as IFNγ secretion. CD14+ monocytes were isolated from human whole blood (Stanford blood center) of donor A using a ficoll gradient and magnetic seperation (CD14 microbeads, Miltenyi). […] Cells were harvested, washed with media, re-suspended to 400,000 cells/ml in media and plated at 10,000 cells/well/25 μl. CD4+ T cells were freshly isolated from human whole blood (Stanford blood center) of donor B using a ficoll gradient and magnetic separation (CD4+ T cell isolation kit, Miltenyi). T cells were re-susepended to 4,000,000 cells/ml in RPMI (Life Technologies) supplemented with 10% Fetal Bovine Serum (FBS, Life Technologies), 2 mM Glutamax (Life Technologies), 25 mM HEPES (Life Technologies) and 1× Pen/Strep (Life Technologies). CD4+ T cells were mixed with the dendritic cells at 100,000 cells/well/25 μl. Cells were treated with test compounds (50 μl at 20 μM, 2 μM and/or 0.2 μM) to a final concentration of 10 μM, 1 μM and/or 0.1 μM. Compounds were diluted in dimethyl sulfoxide (DMSO, Sigma) to a final concentration of 0.1%. DMSO at 0.1% was used as a vehicle control. Cells were maintained for 5 days in a 37° C., 5% CO2 humidified incubator. On day 5, supernatants were collected and measured for interferon gamma (INFγ) using enzyme linked immunosorbent assay (ELISA). Percent inhibition was determined by compound inhibitory potency against IFNγ secretion compared to vehicle treated cells. Data is the average from 4 donors.

[2] = test system: spontaneous periostin secretion; experiment: Inhibition of spontaneous periostin secretion in human 3D airway cultures from asthmatic donors; assay type: cell-based; settings: 192 h, 8 days, 3 or 4 donors
Description: EpiAirway tissue cultures were obtained from Mattek (AIR-100). Cells were derived from asthmatic donors that spontaneously secrete periostin, a matricellular protein associated with Th2 mediated asthma (eosinophilic), and interleukin-6 (IL-6), an inflammatory cytokine that plays a role in both Th2 and non-Th2 related asthma. In a cell culture insert, human derived tracheal/bronchial epithelial cells were grown and differentiated on a porous membrane support, allowing an air-liquid interface with warmed culture medium below the cells and a gaseous test atmosphere above. Tissues were cultured in maintenance media ([…]) in a 37° C., 5% CO2 humidified incubator. Four donors were tested. On Day 0, tissue cultures were treated with test compounds in liquid interface at 10 μM, 1 μM and/or 0.1 μM. Compounds were diluted in dimethyl sulfoxide (DMSO, Sigma) to a final concentration of 0.1%. DMSO at 0.1% was used as a vehicle control. Tissue cultures were maintained for 8 days. Media was replaced every 2 days with fresh media containing compounds. On Day 8, supernatants were collected for analysis. […] Data is expressed as % Inhibition+/-standard deviation (±STDV). Percent inhibition was determined by compound inhibitory potency against spontaneous secretion of periostin and IL-6 compared to vehicle treated cells. […]

[3] = test system: IFNγ induced CXCL10 secretion; experiment: Inhibition of IFNγ induced CXCL10 in human 3D airway cultures; assay type: cell-based; settings: 192 h, 8 days, 4 donors
Description: EpiAirway tissue cultures were obtained from Mattek (AIR-100). Cultures were derived from asthmatic donors. In a cell culture insert, human derived tracheal/bronchial epithelial cells were grown and differentiated on a porous membrane support, allowing an air-liquid interface with warmed culture medium below the cells and a gaseous test atmosphere above. Tissues were cultured in maintenance media ([…]) in a 37° C., 5% CO2 humidified incubator. Four donors were tested. On Day 0, tissue cultures were treated with test compounds in liquid interface at 10 μM, 1 μM and/or 0.1 μM. Compounds were diluted in dimethyl sulfoxide (DMSO, Sigma) to a final concentration of 0.1%. DMSO at 0.1% was used as a vehicle control. […] Tissue cultures were maintained for 8 days. Media was replaced every 2 days with fresh media containing compounds and IFNγ or IL-27. On Day 8, tissue cultures and supernatants were collected for analysis. Supernatant samples were assayed for CXCL10 (IP-10) and CXCL9 (MIG) using luminex analysis (EMD Millipore). Data is expressed as % Inhibition+/-standard deviation (±STDV). Percent inhibition was determined by compound inhibitory potency against IFNγ or IL-27 induced CXCL10 or CXCL9 secretion compared to vehicle treated cells. Data is the average from 4 donors.

CCc1cc(O)ccc1-c1ccc2c(-c3nc4c([nH]3)CN(C(C)C)[C@H](C(=O)N3CC(N(C)C)C3)C4)n[nH]c2c1 [Compound 1, (S)-(3-(dimethylamino)azetidin-1-yl)(2-(6-(2-ethyl-4-hydroxyphenyl)-1H-indazol-3-yl)-5-isopropyl-4,5,6,7-tetrahydro-3H-imidazo[4,5-c]pyridin-6-yl)methanone]
inhibition at 0.1 µM ([1]; Homo sapiens, Lymphocyte, 120 h, 0.1 μM, 5 days, 4 donors): 43%
inhibition at 10 µM ([1]; Homo sapiens, Lymphocyte, 120 h, 10 μM, 5 days, 4 donors): 99%
inhibition at 1 µM ([1]; Homo sapiens, Lymphocyte, 120 h, printed "at μM" (middle concentration, 1 μM in the method), 5 days, 4 donors): 76%
inhibition of IFNγ secretion (in words) ([1]; mixed lymphocyte reaction): effectively inhibit IFNγ secretion
inhibition at 1 µM ([2]; 1 μM): 40%
inhibition at 10 µM ([2]; 10 μM): 62%
inhibition at 0.1 µM ([3]; 0.1 μM): 18%
inhibition at 1 µM ([3]; 1 μM): 76%
inhibition at 10 µM ([3]; 10 μM): 100%
